Where two headings read alike, the source gives them in different places. Non-standard residues stand in square brackets, D forms with d. Residues, ends and D or L forms follow the SMILES beside them. Aun = NCCCCCCCCCCC(=O)O; Aoc = NCCCCCCCC(=O)O
Experiments:
Candida albicans, SLU-1 = assay: 28-day comparative survival efficacy study in mice systemically infected with Candida albicans; format: in vivo, male DBA/2 mice; settings: for improvement in mortality compared with dextrose-treated controls: mice infected iv with C. albicans SLU-1, two doses less than 5 mg/kg, initial experiments (p>0.5)
Method: Derivatized peptide-based constructs are tested for activity upon oral administration (oral activity) in a 28-day comparative survival efficacy study in mice systemically infected with Candida albicans. Specifically, male DBA/2 mice (Charles River Laboratories) six weeks of age are dosed with 7.9×10^4 Candida albicans, SLU-1 in 100 μL intravenously via the tail vein in a single dosage on day zero (0). However, other routes of administration, including intraperitoneal (ip) and subcutaneous (sc) routes may be administered. Amphotericin B will provide complete protection at 0.5 mg/kg qod (100% survival). Mortality data will be subjected to Kaplan-Meier survival analysis. All treatment groups may be considered statistically significant vs. saline at p values <0.05.
Treatment begins immediately thereafter with 400 μL oral gavage of either 0.5% dextrose, or derivative compound in 0.5% dextrose at various dosage levels (e.g., 10 mg/kg or 20 mg/kg) according to a prescribed dosing regimen (e.g. every other day for a total of eight times). Amphotericin B (Fungizone®) is administered intravenously at 0.5 mg/kg as a positive control every other day for a total of eight times. Twice-day monitoring (once daily on weekends and holidays) for mortality is performed. The animals treated with antiflngal derivative compound show improvement in mortality compared with the dextrose-treated controls, preferably statistically significant improvement (p-value of […]).

[1] = test system: Candida albicans designated CA-1, Strain SLU-1; format: cell-based
Method: In each broth microdilution assay screening procedure, a colony of Candida albicans designated CA-1, Strain SLU-1 that was received from the laboratories of G. Matuschak and A. Lechner, St. Louis University Hospital, St. Louis, Mo., where the strain was maintained, was inoculated into a tube containing 5 mL Sabouraud Dextrose broth (2% dextrose, 1% neopeptone) and incubated at 37° C. with shaking. The overnight culture was diluted 1:50 into 5 ml of fresh broth and incubated for 3 hours at 37° C. to exponential phase growth. Organisms were pelleted by centrifugation in a Beckman J-6M centrifuge for 5 minutes at 3000 rpm (1500×g) and the pellets were resuspended in 5 mL phosphate buffered saline (PBS) and the optical density (OD) at 570 nm was determined. On the basis of the determination that one OD unit equals 3×10^7 colony forming units/mL (CFU/mL), yeast cells were diluted to 5×10^3 CFU/mL in Sabouraud Dextrose broth (SBD).
Derivatized peptide sequences based on Domain III of BPI to be screened which were originally constituted in Dulbecco's-PBS, were two-fold serially diluted in SDB starting from a concentration of 128 μg/mL. Equal volumes (100 μL) of yeast suspension as prepared above and derivatized peptide solution were added to wells of a 96-well sterile, flat bottom, non-pyrogenic tissue culture microtiter plate (Costar, Cambridge, Mass.) to reach a final volume of 200 μL/well. The plate was incubated on a shaker at 37° C. for 24 hours. All assays were performed in triplicate. Following the incubation period, plates were read in an ELISA plate reader at 595 nm wavelength to determine the minimum inhibitory concentration (MIC), i.e., the lowest concentration required to reduce the optical density at 595 nm to below 0.1 OD.

Candida albicans SLU-1 = assay: Radial diffusion assay; format: cell-based
Method: In the radial diffusion assay procedures, the CA-1 cultures and derivatized peptide solutions were prepared as in the broth microdilution assay procedure described above, i.e., CA-1 was grown to exponential phase in SDB. Ten (10) mL of molten underlayer agarose comprising 3% Sabouraud Dextrose broth, 1% agarose (Pharmacia, Piscataway, N.J.), 0.02% Tween 20, and 10 mM sodium phosphate at pH 7.4, was added to polystyrene tubes and maintained in a 56° C. water bath until the addition of yeast. Tubes were cooled to approximately 45° C., yeast were added to give a final concentration of 1×10^6 CFU/mL, and the tubes were mixed again by inverting. The contents were poured into leveled, square petri dishes and distributed evenly. […] A series of wells were punched into the hardened agarose using a sterile 3 mm punch attached to a vacuum apparatus to achieve a uniform, 3 mm diameter well.
Derivatized peptide sequences to be assayed were 2-fold serially diluted in 10 mM Dulbecco's PBS (D-PBS) starting from a concentration of approximately […]. Five μL of each dilution were added to each well and the plates were incubated at 37° C. for 3 hours to allow for complete diffusion of the test compounds. An overlayer of 10 mL of molten agarose comprising 6% Sabouraud Dextrose broth, 1% agarose, and 10 mM sodium phosphate, pH 7.4, (at approximately 45° C.) was then added and plates were incubated overnight at 37° C. Following this overnight incubation, a dilute Coomassie solution was poured into the plates and allowed to stain for 24 hours to enhance visualization of the zones.
Clear zones of growth inhibition around each well were measured with calipers. The actual area of growth inhibition (mm^2) was calculated by subtracting the area of the well. Table II below sets out the results of the radial diffusion assays for a series of tested peptide-based constructs in terms of the number of picomoles (pmol) of compound required to establish a 30 mm^2 area of growth inhibition of Candida albicans SLU-1 calculated by PROBIT analysis (e.g., calculated from regression of the linear portion of log-concentration dose-response curve, log pmol/well vs. net area of inhibition).

[2] = designated CA-1, Strain SLU-1, 24 h
[3] = 30 mm^2 area of growth inhibition, calculated by PROBIT analysis

C[C@@H]1[C@H](O)[C@@H](C)/C=C/C=C/C=C/C=C/C=C/C=C/C=C/[C@H](O[C@@H]2O[C@H](C)[C@@H](O)[C@H](N)[C@@H]2O)C[C@@H]2O[C@](O)(C[C@@H](O)C[C@@H](O)[C@H](O)CC[C@@H](O)C[C@@H](O)CC(=O)O[C@H]1C)C[C@H](O)[C@H]2C(=O)O [Amphotericin B, reference compound]
survival (Candida albicans, SLU-1; 0.5 mg/kg qod, positive control, 'will provide complete protection'): 100%

CC[C@@H](C)[C@@H](NC(=O)[C@@H](CC(C)C)NC(=O)[C@@H](Cc1c[nH]c2ccccc12)NC(=O)[C@@H](CCCCN)NC(=O)CCCCCCCN)C(=O)N[C@H](CCC(N)=O)C(=O)N[C@H](CC(C)C)C(=O)N[C@H](Cc1ccccc1)C(=O)N[C@H](Cc1c[nH]cn1)C(=O)N[C@H](CCCCN)C(=O)N[C@H](CCCCN)C(N)=O [XMP.416] (H-[Aoc][dK][dW][dL][dI][dQ][dL][dF][dH][dK][dK]-NH2)
Broth Microdilution (MIC values in μg/mL C. albicans SLU1) [1, 2]: 1 µg/mL
Radial Diffusion (pmol to achieve 30 mm^2 zone C. albicans SLU1) (Candida albicans SLU-1; [3]): 410 pmol

CC[C@@H](C)[C@@H](NC(=O)[C@@H](CC(C)C)NC(=O)[C@@H](Cc1c[nH]c2ccccc12)NC(=O)[C@@H](CCCCN)NC(=O)CCCCCCCCCCN)C(=O)N[C@H](CCC(N)=O)C(=O)N[C@H](CC(C)C)C(=O)N[C@H](Cc1ccccc1)C(=O)N[C@H](Cc1c[nH]cn1)C(=O)N[C@H](CCCCN)C(=O)N[C@H](CCCCN)C(N)=O [XMP.496] (H-[Aun][dK][dW][dL][dI][dQ][dL][dF][dH][dK][dK]-NH2)
Broth Microdilution (MIC values in μg/mL C. albicans SLU1) [1, 2]: 1 µg/mL
Radial Diffusion (pmol to achieve 30 mm^2 zone C. albicans SLU1) (Candida albicans SLU-1; [3]): 434 pmol
improvement in mortality compared with dextrose-treated controls (Candida albicans, SLU-1): did not exhibit statistically significant improvement

CC[C@@H](C)[C@@H](NC(=O)[C@@H](CC(C)C)NC(=O)[C@@H](Cc1c[nH]c2ccccc12)NC(=O)[C@@H](CCCCN)NC(=O)c1c[nH]cn1)C(=O)N[C@H](CCC(N)=O)C(=O)N[C@H](CC(C)C)C(=O)N[C@H](Cc1ccccc1)C(=O)N[C@H](Cc1c[nH]cn1)C(=O)N[C@H](CCCCN)C(=O)N[C@H](CCCCN)C(N)=O [XMP.500]
improvement in mortality compared with dextrose-treated controls (Candida albicans, SLU-1): did not exhibit statistically significant improvement

CC[C@@H](C)[C@@H](NC(=O)[C@@H](CC(C)C)NC(=O)[C@@H](Cc1c[nH]c2ccccc12)NC(=O)[C@@H](CCCCN)NC(C)=O)C(=O)N[C@H](CCC(N)=O)C(=O)N[C@H](CC(C)C)C(=O)N[C@H](Cc1ccccc1)C(=O)N[C@H](Cc1c[nH]cn1)C(=O)N[C@H](CCCCN)C(=O)N[C@H](CCCCNC(=O)CCCC[C@@H]1SC[C@@H]2NC(=O)N[C@@H]21)C(N)=O [XMP.518]
Broth Microdilution (MIC values in μg/mL C. albicans SLU1) [1, 2]: 8 µg/mL
Radial Diffusion (pmol to achieve 30 mm^2 zone C. albicans SLU1) (Candida albicans SLU-1; [3]): 484 pmol

CC[C@@H](C)[C@@H](NC(=O)[C@@H](CC(C)C)NC(=O)[C@@H](Cc1c[nH]c2ccccc12)NC(=O)[C@@H](CCCCN)NC(C)=O)C(=O)N[C@H](CCC(N)=O)C(=O)N[C@H](CC(C)C)C(=O)N[C@H](Cc1ccccc1)C(=O)N[C@H](Cc1c[nH]cn1)C(=O)N[C@H](CCCCNC(=O)CCCC[C@@H]1SC[C@@H]2NC(=O)N[C@@H]21)C(=O)N[C@H](CCCCN)C(N)=O [XMP.521]
Broth Microdilution (MIC values in μg/mL C. albicans SLU1) [1, 2]: 16 µg/mL
Radial Diffusion (pmol to achieve 30 mm^2 zone C. albicans SLU1) (Candida albicans SLU-1; [3]): 959 pmol

CC[C@@H](C)[C@@H](NC(=O)[C@@H](CC(C)C)NC(=O)[C@@H](Cc1c[nH]c2ccccc12)NC(=O)[C@@H](CCCCN)NC(=O)c1cc2ccccc2o1)C(=O)N[C@H](CCC(N)=O)C(=O)N[C@H](CC(C)C)C(=O)N[C@H](Cc1ccccc1)C(=O)N[C@H](Cc1c[nH]cn1)C(=O)N[C@H](CCCCN)C(=O)N[C@H](CCCCN)C(N)=O [XMP.536]
Broth Microdilution (MIC values in μg/mL C. albicans SLU1) [1, 2]: 4 µg/mL
Radial Diffusion (pmol to achieve 30 mm^2 zone C. albicans SLU1) (Candida albicans SLU-1; [3]): >3,371 pmol

CC[C@@H](C)[C@@H](NC(=O)[C@@H](CC(C)C)NC(=O)[C@@H](Cc1c[nH]c2ccccc12)NC(=O)[C@@H](CCCCN)NC(=O)c1cc2ccccc2[nH]1)C(=O)N[C@H](CCC(N)=O)C(=O)N[C@H](CC(C)C)C(=O)N[C@H](Cc1ccccc1)C(=O)N[C@H](Cc1c[nH]cn1)C(=O)N[C@H](CCCCN)C(=O)N[C@H](CCCCN)C(N)=O [XMP.545]
Broth Microdilution (MIC values in μg/mL C. albicans SLU1) [1, 2]: 8 µg/mL
Radial Diffusion (pmol to achieve 30 mm^2 zone C. albicans SLU1) (Candida albicans SLU-1; [3]): 1,635 pmol

CC[C@@H](C)[C@@H](NC(=O)[C@@H](CC(C)C)NC(=O)[C@@H](Cc1c[nH]c2ccccc12)NC(=O)[C@@H](CCCCN)NC(=O)c1nccc2ccccc12)C(=O)N[C@H](CCC(N)=O)C(=O)N[C@H](CC(C)C)C(=O)N[C@H](Cc1ccccc1)C(=O)N[C@H](Cc1c[nH]cn1)C(=O)N[C@H](CCCCN)C(=O)N[C@H](CCCCN)C(N)=O [XMP.546]
Broth Microdilution (MIC values in μg/mL C. albicans SLU1) [1, 2]: >64 µg/mL
Radial Diffusion (pmol to achieve 30 mm^2 zone C. albicans SLU1) (Candida albicans SLU-1; [3]): >3,371 pmol

CC[C@@H](C)[C@@H](NC(=O)[C@@H](CC(C)C)NC(=O)[C@@H](Cc1c[nH]c2ccccc12)NC(=O)[C@@H](CCCCN)NC(=O)c1ccc2ccccc2n1)C(=O)N[C@H](CCC(N)=O)C(=O)N[C@H](CC(C)C)C(=O)N[C@H](Cc1ccccc1)C(=O)N[C@H](Cc1c[nH]cn1)C(=O)N[C@H](CCCCN)C(=O)N[C@H](CCCCN)C(N)=O [XMP.596]
Broth Microdilution (MIC values in μg/mL C. albicans SLU1) [1, 2]: 2 µg/mL
Radial Diffusion (pmol to achieve 30 mm^2 zone C. albicans SLU1) (Candida albicans SLU-1; [3]): 3,140 pmol

CC[C@@H](C)[C@@H](NC(=O)[C@@H](CC(C)C)NC(=O)[C@@H](Cc1c[nH]c2ccccc12)NC(=O)[C@@H](CCCCN)NC(=O)c1cccc(Cl)c1[N+](=O)[O-])C(=O)N[C@H](CCC(N)=O)C(=O)N[C@H](CC(C)C)C(=O)N[C@H](Cc1ccccc1)C(=O)N[C@H](Cc1c[nH]cn1)C(=O)N[C@H](CCCCN)C(=O)N[C@H](CCCCN)C(N)=O [XMP.618]
Broth Microdilution (MIC values in μg/mL C. albicans SLU1) [1, 2]: 4 µg/mL
Radial Diffusion (pmol to achieve 30 mm^2 zone C. albicans SLU1) (Candida albicans SLU-1; [3]): 2,146 pmol

XMP.503: R1 = pyridine carbonyl, R2 = R3 = H (KWLIQLFHKK; XMP.503; Position 1 is derivatized at the alpha-amino with: pyridine carbonyl; Positions 1-10 are D-Amino Acids; AMIDATION=The C-terminus is Amidated)
improvement in mortality compared with dextrose-treated controls (Candida albicans, SLU-1): did not exhibit statistically significant improvement

XMP.535: peptide-based construct; derivatization not given in Table I (KWLIQLFHKK; XMP.535; Position 1 is derivatized at the alpha-amino with: anthraquinone carbonyl; Positions 1-10 are D-Amino Acids; AMIDATION=The C-terminus is Amidated)
Broth Microdilution (MIC values in μg/mL C. albicans SLU1) ([1]; C. albicans SLU1): b (no detectable activity up to 5 μg/well)
Radial Diffusion (pmol to achieve 30 mm^2 zone C. albicans SLU1) (Candida albicans SLU-1): b (no detectable activity up to 5 μg/well)

Reference: patent US6355616B1, “Derivative compounds derived from or based on bactericidal/permeability-increasing protein” (priority 1999, dated 2002)
